Reference: ChEMBL document CHEMBL4359857, “Design, synthesis and biological evaluation of chalcones as reversers of P-glycoprotein-mediated multidrug resistance” (Eur J Med Chem, 2019)

Columns and labels:
[1] = Cytotoxicity against human MCF7/Dox cells assessed as cell survival at 12.5 uM after 48 hrs by MTT assay relative to control; format: cell-based; settings: read-out: Survival
[2] = test system: MCF7-DOX; assay: Cytotoxicity against human MCF7/Dox cells assessed as reduction in cell viability after 48 hrs by MTT assay; format: cell-based
[3] = Reversal of P-gp-mediated multidrug resistance in human MCF7/Dox cells assessed as potentiation of doxorubicin-induced cytotoxicity by measuring doxorubicin IC50 at 12.5 uM after 48 hrs by MTT assay (reference value: 51.19 +/- 0.95 microM)

Compound | viability at 48 h, 12.5 µM [1] [%] | IC50 [2] [µM] | IC50 [3] [µM]
COc1ccc(C(=O)/C=C/c2cccc(N3CCNCC3)c2)c(OC)c1 | 96.4 | 95 | 
COc1cc(OC)c(C(=O)/C=C/c2ccc(N3CCN(C(=O)OC(C)(C)C)CC3)cc2)c(O)c1CC=C(C)C | > 99 | > 100 | 
COc1cc(OC)c(C(=O)/C=C/c2ccc(OC)c(OC)c2OC)c(O)c1CC=C(C)C | 91.9 | 62.6 | 
COc1cc(OC)c(C(=O)/C=C/c2cc(OC)c(OC)c(OC)c2)c(O)c1CC=C(C)C | 90.8 | 74.9 | 26.56
COc1cc(OC)c(C(=O)/C=C/c2cccc(C(F)(F)F)c2)c(O)c1CC=C(C)C | 91.6 | 66.6 | 
COc1cc(OC)c(C(=O)/C=C/c2cccc(N3CCOCC3)c2)c(O)c1CC=C(C)C | > 99 | > 100 | 
COc1cc(OC)c(C(=O)/C=C/c2ccc(F)cc2)c(O)c1CC=C(C)C | 94.3 | 53.7 | 17.96
COc1cc(O)c(C(=O)/C=C/c2cccc(N3CCN(C(=O)OC(C)(C)C)CC3)c2)c(OC)c1 | 85.4 | 56.7 | 39.95
COc1cc(OC)c(C(=O)/C=C/c2cccc(N3CCNCC3)c2)c(O)c1C | 95.8 | 98.7 | 4
COc1cc(OC)c(C(=O)/C=C/c2cccc(N3CCN(C(=O)OC(C)(C)C)CC3)c2)c(O)c1CC=C(C)C | 93 | 42.6 | 
COc1cc(OC)c(C(=O)/C=C/c2cccc(Cl)c2)c(O)c1CC=C(C)C | > 99 | 59.5 | 
COc1cc(O)c(C(=O)/C=C/c2ccc(N3CCN(C(=O)OC(C)(C)C)CC3)cc2)c(OC)c1 | 90.6 | 47.3 | 
COc1cc(O)c(C(=O)/C=C/c2cccc(N3CCNCC3)c2)c(OC)c1 | > 99 | 99.2 | 
COc1cc(O)c(C(=O)/C=C/c2cccc(N3CCOCC3)c2)c(OC)c1 | > 99 | > 100 | 
COc1cc(O)c(C(=O)/C=C/c2cccc(N3CCN(C)CC3)c2)c(OC)c1 | > 99 | 62.2 | 
COc1cccc(/C=C/C(=O)c2c(OC)cc(OC)c(CC=C(C)C)c2O)c1 | > 99 | 49.2 | 
COc1ccc(/C=C/C(=O)c2c(OC)cc(OC)c(CC=C(C)C)c2O)cc1 | > 99 | 46.9 | 
